In patent US20130071328A1, “Propynoic Acid Carbamoyl Methyl-Amides and Pharmaceutical Compositions and Methods Based Thereon” (UNIVERSITY OF SOUTHERN CALIFORNIA, priority 2011, published 2013) one finds IC50 data, which are given here for 19 molecules.

The structures appear in SMILES notation. Where only a bound is given, the exact number is not on record here.

Assay [1] relates to doxorubicin-resistant NCI/ADR-RES ovarian cancer cell line. Description: Cytotoxicity assay, NCI/ADR-RES. It counts as cell-based. The following applies: Homo sapiens. As for the experimental part:
(§1) Cytotoxicity was assessed by MTT assay as described previously. 43 In brief, cells were seeded in 96-well microtiter plates and allowed to attach overnight. Cells were subsequently treated with continuous exposure to corresponding drugs for 72 h. At the end of treatments, an MTT solution (at a final concentration of 0.5 mg/mL) was added to each well, and cells were incubated for 4 h at 37° C. After removal of the supernatant, DMSO was added, and the absorbance was read at 570 nm. All assays were done in triplicate. The IC50 was then determined for each drug from a plot of log(drug concentration) versus percentage of cells killed.

The test system of assay [2] is HEY ovarian cancer cell line. Description: Cytotoxicity assay, HEY. The settings on record: Homo sapiens. It counts as cell-based.
Excerpt: (§2) The human breast cancer cell line MDA-MB-435 and the colon cancer cell line HT29 were purchased from the American Type Cell Culture (Manassas, Va.). Colon cancer cell lines HCT116 p53^+/+ and HCT116 p53^−/− were kindly provided by Dr. Bert Vogelstein (Johns Hopkins Medical Institutions, Baltimore, Md.). The human ovarian carcinoma cell line (HEY), naturally resistant to cisplatin (CDDP), was kindly provided by Dr. Louis Dubeau (USC Norris Cancer Center). The bladder cancer cell lines were kindly provided by Dr. Richard Cote (USC Keck School of Medicine). Cells were maintained as monolayer cultures in the appropriate media: RPMI-1640 (HT29, HCT116 p53^+/+, HCT116 p53^−/−, and HEY cell lines) or DMEM (MDA-MB-435 and UMUC3 cell lines) supplemented with 10% fetal bovine serum (FBS) (HyClone, Road Logan, Utah) at 37° C. in a humidified atmosphere of 5% CO2. To remove the adherent cells from the flask for subculture and counting, cells were washed with PBS without calcium or magnesium, incubated with a small volume of 1×trypsin-EDTA solution (Sigma-Aldrich, St. Louis, Mo.) for 5 min, resuspended with fresh culture medium, and centrifuged at 1200 rpm for 5 min. All experiments were performed using cells in exponential growth phase. Cells were routinely checked for Mycoplasma contamination using PlasmaTest kit (InvivoGen, San Diego, Calif.).
as §1

Assay [3] deals with OVCAR8 ovarian cancer cell line. Description: In vitro cytotoxicity, OVCAR8. It counts as cell-based. The settings on record: Homo sapiens, OVCAR-8; Table 4, ovarian cancer panel. On the procedure: as §1
Assay [4] has as its system HCT116 p53^+/+ colon cancer cell line. Description: MTT cytotoxicity assay, HCT116 p53+/+. The settings on record: Homo sapiens, HCT-116, 72 h exposure. It counts as cell-based.
Excerpt: as §2, §1
(Tetrazolium dyes change colour on reduction, which living cells bring about.)

Assay [5] deals with UMUC3 bladder cancer cell line. In words: MTT cytotoxicity assay, UMUC3. It counts as cell-based. The settings on record: Homo sapiens, 72 h exposure.
Excerpt: as §2, §1

Assay [6] concerns HCT116 p53^−/− colon cancer cell line. In words: MTT cytotoxicity assay, HCT116 p53-/-. It counts as cell-based. The following applies: Homo sapiens, HCT-116, 72 h exposure.
Excerpt: as §2, §1

The test system of assay [7] is 5637 bladder cancer cell line. Description: MTT cytotoxicity assay, 5637. It counts as cell-based, human. The settings on record: Homo sapiens, 72 h exposure.
Excerpt: as §2, §1

The subject of assay [8] is MDA-MB-435 breast cancer cell line. In words: MTT cytotoxicity assay, MDA-MB-435. It counts as cell-based, human. The settings on record: Homo sapiens, MDA-MB-435, 72 h, 72 h exposure.
Excerpt: as §2, §1

Assay [9] relates to HT29 colon cancer cell line. In words: MTT cytotoxicity assay, HT29. The settings on record: Homo sapiens, HT-29, 72 h exposure. It counts as cell-based.
Excerpt: as §2, §1

As to `C#CC(=O)N(c1ccc(OC)cc1OC)C(C(=O)NCC(=O)NCCN1CCOCC1)c1cccs1` (centres unmarked) [Compound 45], the IC50 in [1] (Table 4, ovarian cancer panel) is greater than 10 µM; in [2] (Table 4, ovarian cancer panel), 0.32 µM; in assay [3], 5 µM.
`C#CC(=O)N(c1ccc(OC)cc1OC)C(C(=O)NCC(=O)OCC)c1ccccc1` (centres unmarked) [Compound 41] displayed an IC50 in [3] of 0.4 ± 0.2 µM.
Turning to `C#CC(=O)N(c1ccc2ccccc2c1)C(C(=O)NC1CCCC1)c1ccccc1` (centres unmarked) [Compound 14, N-[2-(Cyclopentylamino)-2-oxo-1-phenylethyl]-N-(2-naphthyl)Propynamide], the IC50 is 0.3 µM in [1] (MTT, 72 h exposure (Table 2)); 1.7 ± 1.1 µM in [2] (MTT, 72 h exposure (Table 2)); 6.8 ± 1.8 µM in assay [4]; greater than 20 µM in assay [5]; 7.4 ± 0.8 µM in [6]; 0.5 ± 0.3 µM in assay [7]. The IC50 in assay [8] worked out at 7.3 µM; in assay [9], 4.9 ± 3.4 µM.
On to `C#CC(=O)N(Cc1ccc2c(c1)OCO2)C(C(=O)NCc1ccccc1)c1ccccc1F` (centres unmarked) [Compound 15, N-(1,3-Benzodioxol-5-ylmethyl)-N-[2-(benzylamino)-1-(2-fluorophenyl)-2-oxoethyl]Propynamide], for which the IC50 is 1.3 ± 1 µM in [1] (MTT, 72 h exposure (Table 2)); greater than 10 µM in assay [2] (MTT, 72 h exposure (Table 2)); greater than 10 µM in [4]; greater than 20 µM in assay [5]; greater than 20 µM in assay [6]; 2.8 ± 1.1 µM in [7]. The IC50 in assay [8] and in assay [9] was greater than 10 µM throughout.
For `C#CC(=O)N(c1ccc(O)cc1OC)C(C(=O)NCC(=O)OCC)c1cccs1` (centres unmarked) [Compound 40], the IC50 was 12.8 ± 3.8 µM in [1] (Table 4, ovarian cancer panel) and 10.4 ± 1.6 µM in [3].
In the case of `C#CC(=O)N(c1cccc(C(F)(F)F)c1)C(C(=O)NCc1ccccc1)c1cccs1` (centres unmarked) [Compound 16, N-[2-(Benzylamino)-2-oxo-1-thien-2-ylethyl]-N-[3-(trifluoromethyl)-phenyl]Propynamide], the IC50 in assay [1] (MTT, 72 h exposure (Table 2)) was 0.7 ± 0.6 µM; in assay [2] (MTT, 72 h exposure (Table 2)), 7.1 ± 2.6 µM; in assay [4], 9 ± 1.4 µM; in [5] it was greater than 20 µM; in assay [6], 16.1 ± 5.6 µM; in [7], 1.2 ± 1.1 µM. Also, the IC50 in assay [8] was 4.2 ± 3 µM; in assay [9] it was 7.3 ± 0.3 µM.
Regarding `C#CC(=O)N(c1cccc(OC)c1)C(C(=O)NC1CCCC1)c1cccs1` (centres unmarked) [Compound 6, N-[2-(Cyclopentylamino)-2-oxo-1-thien-2-ylethyl]-N-(3-methoxyphenyl)Propynamide], the IC50 in assay [1] (MTT, 72 h exposure (Table 2)) was 0.3 µM; in [2] (MTT, 72 h exposure (Table 2)), 1.9 ± 0.7 µM; in assay [4] it was 7.2 ± 0.2 µM; in assay [5], 6.9 ± 1.2 µM; in assay [6], 5.6 ± 0.8 µM; in assay [7], 0.3 µM. The IC50 in assay [9] was 2.3 ± 0.3 µM.
As for `C#CC(=O)N(c1cc(OC)ccc1OC)C(C(=O)NC1CCCC1)c1cccs1` (centres unmarked) [Compound 7, N-[2-(Cyclopentylamino)-2-oxo-1-thien-2-ylethyl]-N-(2,5-dimethoxyphenyl)Propynamide], the IC50 amounted to 0.3 µM in assay [1] (MTT, 72 h exposure (Table 2)); 1.5 ± 1.1 µM in [2] (MTT, 72 h exposure (Table 2)); 5.7 ± 0.6 µM in assay [4]; 5.7 ± 1.5 µM in assay [5]; 4.7 ± 2.3 µM in assay [6]; 0.3 µM in [7]. Besides, the IC50 in [8] turned out to be 0.5 ± 0.3 µM; in assay [9], 1.6 ± 1 µM.
Consider `C#CC(=O)N(c1cccc(C(F)(F)F)c1)C(C(=O)NC1CCCC1)c1ccc(F)cc1` (centres unmarked) [Compound 12, N-[2-(Cyclopentylamino)-1-(4-fluorophenyl)-2-oxoethyl]-N-[3-(trifluoromethyl)phenyl]Propynamide], for which the IC50 in assay [1] (MTT, 72 h exposure (Table 2)) came to 0.4 µM; in assay [2] (MTT, 72 h exposure (Table 2)), 2.4 ± 0.2 µM; in assay [4], 7.5 ± 0.7 µM; in assay [5], 8 ± 1.4 µM; in assay [6] it was 6.9 ± 0.6 µM; in assay [7], 0.5 ± 0.3 µM. Besides, the IC50 came out at 5.2 ± 1.2 µM in assay [8] and 4.8 ± 3.2 µM in assay [9].
As for `C#CC(=O)N(c1ccc(OC)c(OC)c1)C(C(=O)NC1CCCC1)c1cccs1` (centres unmarked) [Compound 3, N-[2-(Cyclopentylamino)-2-oxo-1-thien-2-ylethyl]-N-(3,4-dimethoxyphenyl)Propynamide], the IC50 in [1] (MTT, 72 h exposure (Table 2)) was 0.9 ± 0.8 µM; in assay [2] (MTT, 72 h exposure (Table 2)), 3.4 ± 1.5 µM; in assay [4], 7.7 ± 1.9 µM; in assay [5], greater than 20 µM; in [6] it was 9.6 ± 4.9 µM; in [7], 2 ± 0.7 µM. Besides, the IC50 in assay [8] was determined as 2 ± 0.1 µM; in [9], 5.5 ± 4.2 µM.
For `C#CC(=O)N(c1ccc2c(c1)OCCO2)C(C(=O)NC1CCCC1)c1ccccc1` (centres unmarked) [Compound 8, N-[2-(Cyclopentylamino)-2-oxo-1-phenylethyl]-N-(2,3-dihydro-1,4-benzodioxin-6-yl)Propynamide], the half-maximal inhibitory concentration (IC50) in [1] (MTT, 72 h exposure (Table 2)) was 0.3 µM; in assay [2] (MTT, 72 h exposure (Table 2)) it was 4.1 ± 3.4 µM; in [4], 17.3 ± 1.1 µM; in assay [5], greater than 20 µM; in assay [6] it was greater than 20 µM; in [7] it was 1.9 ± 0.6 µM. Also, the IC50 in assay [8] turned out to be 1.8 ± 0.6 µM; in [9] it was 3.2 ± 1.2 µM.
With `C#CC(=O)N(Cc1ccccc1Cl)C(C(=O)NC1CCCC1)c1ccccc1` (centres unmarked) [Compound 17, N-(2-Chlorobenzyl)-N-[2-(cyclopentylamino)-2-oxo-1-phenylethyl]Propynamide], the IC50 was 2.2 ± 0.2 µM in assay [1] (MTT, 72 h exposure (Table 2)); 5.8 ± 1.3 µM in assay [2] (MTT, 72 h exposure (Table 2)); 7.7 ± 0.5 µM in assay [4]; greater than 20 µM in [5]; 7.3 ± 1.4 µM in assay [6]; 1.8 ± 0.1 µM in [7]. The IC50 turned out to be 8.2 ± 0.2 µM in assay [8] and 5.4 ± 3 µM in assay [9].
As for `C#CC(=O)N(c1cc(OC)cc(OC)c1)C(C(=O)NC1CCCC1)c1ccc(OC)cc1` (centres unmarked) [Compound 11, N-[2-(Cyclopentylamino)-1-(4-methoxyphenyl)-2-oxoethyl]-N-(3,5-dimethoxyphenyl)Propynamide], the IC50 in assay [1] (MTT, 72 h exposure (Table 2)) is 0.3 µM; in [2] (MTT, 72 h exposure (Table 2)) it was 2.3 ± 0.4 µM; in assay [4] it was 15 µM; in assay [5], greater than 20 µM; in assay [6], greater than 20 µM; in assay [7], 1.9 ± 0.6 µM. In addition, the IC50 in assay [8] turned out to be 2.4 ± 0.1 µM; in assay [9] it was 2.1 ± 0.4 µM.
Take `C#CC(=O)N(c1ccc(-n2cnnn2)c(C)c1)C(C(=O)NCC(=O)OCC)c1ccccc1F` (centres unmarked) [Compound 20]: the IC50 was determined as 1.3 µM in assay [1] (Table 4, ovarian cancer panel) and 0.2 µM in [3].
Turning to `C#CC(=O)N(c1ccc(OC)cc1OC)C(C(=O)NC1CCCC1)c1cccs1` (centres unmarked) [Compound 5, N-[2-(Cyclopentylamino)-2-oxo-1-thien-2-ylethyl]-N-(2,4-dimethoxyphenyl)Propynamide], the IC50 is 0.4 µM in [1] (MTT, 72 h exposure (Table 2)); 4.1 ± 3.4 µM in assay [2] (MTT, 72 h exposure (Table 2)); 6.9 ± 0.6 µM in assay [4]; greater than 20 µM in assay [5]; 7 ± 0.7 µM in assay [6]; 1.7 ± 0.8 µM in assay [7]. Further, the IC50 in [8] was 1.7 ± 0.5 µM; in assay [9], 2.3 ± 0.3 µM.
As to `C#CC(=O)N(Cc1ccco1)C(C(=O)NC1CCCC1)c1ccccc1F` (centres unmarked) [Compound 10, N-[2-(Cyclopentylamino)-1-(2-fluorophenyl)-2-oxoethyl]-N-(2-furylmethyl)Propynamide], the IC50 in assay [1] (MTT, 72 h exposure (Table 2)) was 1.2 ± 0.4 µM; in assay [2] (MTT, 72 h exposure (Table 2)), 4.3 ± 3.9 µM; in assay [4], 10.5 µM; in assay [5], greater than 20 µM; in assay [6] it was 13 ± 2.8 µM; in [7], 2.9 ± 0.8 µM. Also, the IC50 was 1.7 ± 0.6 µM in assay [8] and greater than 10 µM in [9].
With `C#CC(=O)N(Cc1ccc(OC)cc1OC)C(C(=O)NCC(=O)OCC)c1ccccc1` (centres unmarked) [Compound 42], half-maximal inhibition in assay [3] (IC50) was put at 3.4 ± 0.4 µM.
As to `C#CC(=O)N(c1cccc(C(F)(F)F)c1)C(C(=O)NC1CCCCC1)c1cccs1` (centres unmarked) [Compound 13, N-[2-(Cyclohexylamino)-2-oxo-1-thien-2-ylethyl]-N-[3-(trifluoromethyl)phenyl]Propynamide], the IC50 is 0.4 µM in assay [1] (MTT, 72 h exposure (Table 2)); 5.2 ± 3.6 µM in assay [2] (MTT, 72 h exposure (Table 2)); 8.3 ± 1.1 µM in assay [4]; greater than 20 µM in assay [5]; 10.4 ± 0.2 µM in assay [6]; 1.6 ± 0.7 µM in [7]. The IC50 in assay [8] worked out at 6.9 ± 0.8 µM; in [9], 6 ± 1.4 µM.
For `C#CC(=O)N(CC(N)=O)c1ccc(OC)cc1OC` [Compound 29], the concentration for half-maximal inhibition (IC50) in assay [3] was determined as 0.5 ± 0.3 µM.

Broadly, the IC50 is the concentration at which inhibition is half-maximal.
